In patent US20140303242A1, “Sparstolonin B Based Pharmaceutical Agent to Treat Pathological Angiogensis” (University of South Carolina, priority 2013, published 2014):

What was measured:
HUVECs [1] = test: Microarray gene expression analysis (HUVECs); format: cell-based, human
Method: Confluent plates (100×20 mm polystyrene, tissue culture-treated petri plates coated with 0.1% gelatin, 75% confluent) of HUVECs and HCAECs (four plates for HUVECs, n=2, and six plates for HCAECs, n=3) were chosen for the microarray experiments. Half of the plates received complete growth medium (10% fetal bovine serum with endothelial mitogen) containing vehicle control (0.1% DMSO), and the remaining plates received complete growth medium containing 100 μM SsnB. The plates were incubated for 24 h to allow SsnB to have an effect on cellular gene expression. Following incubation, RNA isolation was completed with the RNeasy Mini kit from Qiagen. The cells were lysed, and RNA was isolated by using the RNeasy spin columns and following the protocol provided by Qiagen. Purified RNA was sent to the Medical University of South Carolina Proteogenomics Facility for microarray analysis. The GeneChip Human Genome U133 Plus 2.0 Array was utilized to track changes in gene expression due to SsnB treatment. Complete data was uploaded to the NCBI Gene Expression Omnibus database (accession number GSE44598).
(§1) Microarray data analysis, including data normalization (robust multi-array average), identification of differentially expressed genes (comparative analyses with dChip software), and heat map construction, was carried out to determine how SsnB affects gene expression and affected pathways (n=2 for HUVECs and n=3 for HCAECs). After a careful analysis of the microarray data, several key genes were chosen for qRT-PCR to verify the gene expression results. The genes were chosen based on the following criteria: fold change ≧2, p<0.05, unpaired t-test with a false discovery rate approximating 0%, appearing in both data sets (HUVECs and HCAECs), and gene function relating to cell proliferation and/or angiogenesis. For qRT-PCR, the expression levels were normalized to the housekeeping gene GAPDH, and RNA levels were compared between groups with the ΔΔCt method.

HCAECs [2] = test: Real time RT-PCR gene expression (HCAECs); format: cell-based, human; conditions: 24 h
Method: (§2) After a careful analysis of the microarray data, key genes (CDC6, CCNE2, KITLG, ALDH3A1, CCNB1, CDC2, HMMR, DIAPH3, ANLN, and CDKN3) were chosen for quantitative real-time PCR (qRT-PCR) to verify the gene expression results. HCAECs and HUVECs were exposed to SsnB or vehicle control for 24 h (as previously described in the microarray section). For RT-PCR, RNA was isolated from the cells with the RNeasy Mini kit as described previously. After forward and reverse primer kits (Qiagen, Valencia, Calif.) were selected, the RNA was amplified. The one-step RT-PCR reactions were completed on the BioRad iCycler thermal cycler system in the Instrumentation Resource Facility at the USC School of Medicine. The expression levels were normalized, and RNA levels were quantified.
as §1

monocytic THP-1 cells = test: Cytotoxicity on monocytic THP-1 cells; format: cell-based; conditions: concentrations up to 100 μM
HCAECs [3] = test: Matrigel tube formation assay (HCAECs); format: cell-based, human; conditions: between 1 and 100 μM, 4 h
Method: (§3) To initially determine if SsnB inhibited pro-angiogenic cell functions, a tube formation assay with Matrigel was performed. Growth factor reduced Matrigel (BD Biosciences, Bedford, Mass.) was added to the wells of a 96 well polystyrene culture plate and incubated at 37° C. for 30 minutes. Cells (HUVECs, HCAECs, or HMVECs at passage 2 to 4) were added to each well to reach a final number of 20,000 cells per well. SsnB was added to the wells at a concentration of 1, 10, or 100 μM. Endothelial cell medium with DMSO (0.1%) was used as a vehicle control. Each group contained 4 replicates. The plates were placed in an incubator for 4 h. During the incubation, the endothelial cells formed elongated structures called cords, also known as tubes. After 4 h, neutral buffered formalin was added to fix the cells. Pictures of three non-overlapping fields were taken from each well. The lengths of single cell endothelial cords were measured with Image-Pro Plus (Media Cybernetics, Silver Spring, Md.), and the sum of tube lengths for each well was determined. The average total length and standard deviation for each group were determined, and the appropriate statistical tests (ANOVA and Newman-Keuls) were completed. The tube formation assay was replicated three times for both HUVECs and HCAECs. The assay was also repeated with cardiac HMVECs.

HMVECs = test: Matrigel tube formation assay (cardiac HMVECs); format: cell-based, human; conditions: 1, 10, 100 μM, 4 h
Method: as §3

HUVECs [4] = test: Real time RT-PCR gene expression (HUVECs); format: cell-based, human; conditions: 24 h
Method: as §2, §1

HUVECs [5] = test: Live/Dead cell viability assay; format: cell-based; conditions: HUVECs, 1, 10, 100 μM, 4 h
Method: A Live/Dead assay (Invitrogen, Eugene, Oreg.) was utilized to investigate the effect of SsnB on cell viability. The Matrigel tube formation experiment was repeated with HUVECs in chamber slides at a concentration of 20,000 cells per well. The cells were treated with SsnB (1, 10, or 100 μM) or Vehicle Control (0.1% DMSO) as described above. After four hours of incubation, the slides were removed. A chamber slide containing HUVECs treated with 70% methanol for 30 minutes was used as a control for dead cell staining. The slides were aspirated and washed with PBS, and EthD-1 and calcein AM were added to each well. The plates were incubated in the dark, and images were taken with a light microscope at 10× magnification.

HUVECs [6] = test: Cytotoxicity on HUVECs; format: cell-based, human; conditions: concentrations up to 100 μM
[7] = test system: human aortic smooth muscle cells; test: Cytotoxicity on human aortic smooth muscle cells; format: cell-based; conditions: concentrations up to 100 μM
[8] = HUVECs, 100 μM SsnB vs vehicle control, 24 h
[9] = microarray data, cell type not specified
[10] = SsnB vs vehicle control, normalized to GAPDH

## O=c1occ2c3c(ccc(O)c13)Oc1ccc(O)cc1-2 [SsnB, Sparstolonin B]
HUVECs [1]; [8]
  ALDH3A1 Microarray Fold change value: 7.7
  ANLN Microarray Fold change value: 0.09
  CCNB1 Microarray Fold change value: 0.19
  CCNE2 Microarray Fold change value: 0.24
  CDC2 Microarray Fold change value: 0.08
  CDC6 Microarray Fold change value: 0.23
  CDKN3 Microarray Fold change value: 0.19
  DIAPH3 Microarray Fold change value: 0.34
  HMMR Microarray Fold change value: 0.11
  KITLG Microarray Fold change value: 6.2
HUVECs [1]; HUVECs, 100 μM, 24 h, fold change ≧2, p<0.05
  number of differentially expressed genes in response to SsnB exposure: 916 genes
HUVECs [1]; [9]
  KIF18A expression in microarray data: downregulated
  TACC3 expression in microarray data: downregulated
  aurora kinases (AURKA and AURKB) expression in microarray data: downregulated
HCAECs [2]
  ALDH3A1 expression (qRT-PCR): 4620 % of controls
  CCNE2 gene expression after SsnB exposure (qRT-PCR): 57 % of controls
  CDC6 gene expression after SsnB exposure (qRT-PCR): 14 % of controls
  KITLG expression (qRT-PCR): 260 % of controls
HCAECs [2]; [10]
  ALDH3A1 PCR 2^ΔΔCt value: 46.2
  ANLN PCR 2^ΔΔCt value: 0.13
  CCNB1 PCR 2^ΔΔCt value: 0.13
  CCNE2 PCR 2^ΔΔCt value: 0.57
  CDC2 PCR 2^ΔΔCt value: 0.17
  CDC6 PCR 2^ΔΔCt value: 0.14
  CDKN3 PCR 2^ΔΔCt value: 0.22
  DIAPH3 PCR 2^ΔΔCt value: 0.26
  HMMR PCR 2^ΔΔCt value: 0.062
  KITLG PCR 2^ΔΔCt value: 2.6
Monocytic THP-1 cells
  cytotoxic effects: does not exhibit cytotoxic effects
HCAECs [3]
  HCAEC tube formation on Matrigel: dose-dependent inhibition
HMVECs
  cardiac HMVEC tube formation: dose-dependent inhibition
HUVECs [4]
  ALDH3A1 expression (qRT-PCR): 1280 % of controls
  KITLG expression (qRT-PCR): 400 % of controls
HUVECs [4]; [10]
  ALDH3A1 PCR 2^ΔΔCt value: 12.8
  ANLN PCR 2^ΔΔCt value: 0.20
  CCNB1 PCR 2^ΔΔCt value: 0.40
  CCNE2 PCR 2^ΔΔCt value: 0.64
  CDC2 PCR 2^ΔΔCt value: 0.14
  CDC6 PCR 2^ΔΔCt value: 0.35
  CDKN3 PCR 2^ΔΔCt value: 0.18
  DIAPH3 PCR 2^ΔΔCt value: 0.19
  HMMR PCR 2^ΔΔCt value: 0.24
  KITLG PCR 2^ΔΔCt value: 4.0
HUVECs [5]
  cell viability (live/dead assay): no effect on cell viability
HUVECs [6]
  cytotoxic effects: does not exhibit cytotoxic effects
[7]
  cytotoxic effects: does not exhibit cytotoxic effects
